These are literature values, as cited in US20160095816A2, “ARTICLE AND METHODS FOR ORAL SELF-ADMINISTRATION OF NICOTINE” (priority 2012, published 2016).

Structures are written as SMILES.

The conditions of data set [1]: cigarette smoking, inhaled; "may be as high as".
For data set [2] the following is noted: metabolized in the liver.

Take `CN1CCCC1c1cccnc1` (centres unmarked) [Nicotine, 3-(1-Methyl-2-pyrrolidinyl) pyridine]: the “peak of nicotine delivered into the bloodstream through smoking” value in data set [1] is 30-40 nanograms per milliliter of blood. Also, the “half life in the bloodstream” value in data set [2] was 1 to 2 h.
